Patent US20250326748A1, “COMPOUNDS AND METHODS FOR MODULATING SPLICING” (REMIX THERAPEUTICS INC., priority 2022, published 2025)
Structures can show the parent of a compound that is named as a salt. Where two headings read alike, the source gives them in different places.

Columns and labels:
Format in all cases: cell-based, human
[1] = tested on: SMN2 mRNA; assay: Splicing RT-qPCR panel, SMN2 canonical junction (CJ) mRNA; details: Homo sapiens, read-out: SMN2 CJ (decrease in CJ mRNA levels, IC50)
In short: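 A673 cells (DMEM, 10% FBS) or K562 cells (IMDM, 10% FBS) treated 24 h at 37 °C with an 11-point 3-fold dilution, top 10 uM, DMSO ≤0.25%. Canonical-junction mRNA quantified in lysates by RT-qPCR, normalised to GAPDH, GUSB or PPIA and to DMSO (2^−ΔΔCt), then converted to % response.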

[2] = tested on: Target C; assay: HiBiT protein abundance assay, Target C (K562 HiBiT knock-in); details: HiBiT knock-in cells, 24 hours
In short: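 K562 HiBiT knock-in cells (10000/well) in IMDM + 1% FBS were treated for 24 h at 37° C. with a 10-point 3-fold dilution series (top 10 μM final), with DMSO ≤0.25%. Unmodified K562 served as baseline. HiBiT lytic luminescence was normalized to controls, and IC50 was interpolated at 50% from a four-parameter fit.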

[3] = tested on: MYB mRNA; assay: Splicing RT-qPCR assay, MYB canonical (CJ) and alternative (AJ) junction mRNA; details: Homo sapiens; for IC50: canonical junction mRNA; for AC50: alternative junction mRNA, read-out: MYB AJ (AC50, increase in AJ mRNA)
In short: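 One-step RT-qPCR on cell lysates quantified CJ and AJ isoforms, normalized to PPIA for A673 or GAPDH/GUSB for K562. Cells were exposed for 24 h at 37° C to 11 concentrations in 3-fold steps up to 10 uM, with DMSO ≤0.25%. A673 were grown in DMEM and K562 in IMDM, both with 10% FBS.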

[4] = qPCR panel, read-out: MYB CJ (decrease in CJ mRNA levels, IC50)
[5] = RT-qPCR, A673 or K562 cells, 24 hours treatment
[6] = RT-qPCR, A673 or K562 cells, 24 hours treatment, read-out: MYB CJ (IC50, decrease in CJ mRNA)

SMILES | IC50 [1] [nM] | IC50 [2] [nM] | IC50 [3, 4] [nM] | IC50 [3, 6] [nM] | AC50 [3, 5] [nM]
CCN[C@@H]1CCN(c2cnc3nc(-c4cc5cn(C)nc5cc4O)ccc3c2)C1 [Compound 310, 5-{6-[(3R)-3-(ethylamino)468pyrrolidine-1-yl]-1,8-naphthyridin-2-yl}-2-methylindazol-6-ol hydrochloride] | < 100 | 100 to 1000 | < 100 | < 100 | < 100
CCN[C@H]1CCN(c2cnc3nc(-c4cc5cn(C)nc5cc4O)ccc3c2)C1 [Compound 311, 5-{6-[(3S)-3-(ethylamino)pyrrolidin-1-yl]-1,8-naphthyridin-2-yl}-2-methylindazol-6-ol hydrochloride] | < 100 | 100 to 1000 | 100 to 1000 | 100 to 1000 | 100 to 1000
Cn1cc2cc(-c3ccc4cc(N5CC[C@@H](NCC6CC6)C5)cnc4n3)c(O)cc2n1 [Compound 313] | < 100 | 100 to 1000 | 100 to 1000 | 100 to 1000 | < 100
Cn1cc2cc(-c3ccc4cc(N5CC[C@H](NCC6CC6)C5)cnc4n3)c(O)cc2n1 [Compound 314] | < 100 | 100 to 1000 | 100 to 1000 | 100 to 1000 | 100 to 1000
CN(C)C1CCN(c2cnc3nc(-c4cc5cn(C)nc5cc4O)ccc3c2)CC1 [Compound 316] | < 100 | 1000 to 10000 | 100 to 1000 | 100 to 1000 | 100 to 1000
CCN[C@@H]1CCN(c2cnc3nc(-c4cc5cn(C)nc5cc4O)cc(Cl)c3c2)C1 [Compound 317] | < 100 | < 100 | < 100 | < 100 | < 100
CCN[C@H]1CCN(c2cnc3nc(-c4cc5cn(C)nc5cc4O)cc(Cl)c3c2)C1 [Compound 318] | < 100 | 100 to 1000 | < 100 | < 100 | < 100
C[C@@H]1CN(c2cnc3nc(-c4ccc5nn(C)cc5c4)cc(Cl)c3c2)C[C@H](C)N1 [Compound 320, 4-chloro-6-[(3R,5S)-3,5-dimethylpiperazin-1-yl]-2-(2-methylindazol-5-yl)-1,8-naphthyridine] | < 100 | > 10000 | 1000 to 10000 | 1000 to 10000 | 1000 to 10000
C[C@@H]1CN(c2cnc3nc(-c4cc(C#N)c5nn(C)cc5c4)cc(Cl)c3c2)C[C@H](C)N1 [Compound 325, 5-(4-chloro-6-((3R,5S)-3,5-dimethylpiperazin-1-yl)-1,8-naphthyridin-2-yl)-2-methyl-2H-indazole-7-carbonitrile 2,2,2-trifluoroacetate] | < 100 | > 10000 | 100 to 1000 | 100 to 1000 | 1000 to 10000

Second part, led by results:

IC50 [1] [nM] | IC50 [2] [nM] | IC50 [3, 4] [nM] | IC50 [3, 6] [nM] | SMILES | AC50 [3, 5] [nM]
< 100 | 100 to 1000 | 100 to 1000 | 100 to 1000 | Cc1cn2nc(-c3ccc4cc(N5C[C@@H](C)N[C@@H](C)C5)cnc4n3)cc(C)c2n1 [Compound 330] | 100 to 1000
< 100 | 1000 to 10000 | 100 to 1000 | 100 to 1000 | Cc1cn2nc(-c3cc(Cl)c4cc(N5C[C@@H](C)N[C@@H](C)C5)cnc4n3)cc(C)c2n1 [Compound 335, 4-chloro-2-{2,8-dimethylimidazo[1,2-b]478pyridazine-6-yl}-6-[(3R,5S)-3,5-dimethylpiperazin-1-yl]-1,8-naphthyridine] | 100 to 1000
< 100 | 100 to 1000 | < 100 | < 100 | CN[C@H]1CCN(c2cnc3nc(-c4cc(C)c5nc(C)cn5n4)cc(Cl)c3c2)C1 [Compound 340] | 100 to 1000
< 100 | < 100 | < 100 | < 100 | CN[C@@H]1CCN(c2cnc3nc(-c4cc(C)c5nc(C)cn5n4)cc(Cl)c3c2)C1 [Compound 341] | < 100
< 100 | 1000 to 10000 | 100 to 1000 | 100 to 1000 | C[C@@H]1CN(c2cnc3nc(-c4cc5cn(C)nc5cc4O)ccc3c2)C[C@H](C)N1 [Compound 343] | 100 to 1000
< 100 | 100 to 1000 | 100 to 1000 | 100 to 1000 | Cc1cn2nc(-c3cc(Cl)c4cc(N5CCC(N(C)C)CC5)cnc4n3)cc(C)c2n1 [Compound 348] | 100 to 1000
< 100 | 100 to 1000 | 100 to 1000 | 100 to 1000 | Cc1cn2nc(-c3cc(Cl)c4cc(N5CCC(N6CCC6)CC5)cnc4n3)cc(C)c2n1 [Compound 349] | 100 to 1000
100 to 1000 | 1000 to 10000 | 100 to 1000 | 100 to 1000 | Cc1cn2cc(-c3ccc4cc(N5C[C@@H](C)N[C@@H](C)C5)cnc4n3)cc(F)c2n1 [Compound 350] | 1000 to 10000
